Literature values as cited in patent US6022703A, “Expression of DNA sequences derived from nocardioform microorganisms” (Genzyme Corporation, priority 1993, dated 2000).

Tested on: Nocardioform cholesterol oxidase
Conditions: at 25°

Km: 14 µM
SMILES: CC(C)CCC[C@@H](C)[C@H]1CC[C@H]2[C@@H]3CC=C4C[C@@H](O)CC[C@]4(C)[C@H]3CC[C@]12C [cholesterol]
